From US20090023801A1, “INHIBITORS OF BETA AMYLOID PRODUCTION” (Wyeth, priority 2007, published 2009)
Like-named read-outs stand apart in the source and are kept apart here.

Legend:
Aβ40 = assay: Aβ-lowering MSD electrochemiluminescent assay of conditioned media from CHO cells expressing human APP (Aβ40); type: cell-based
Procedure: (§1) The activity of compounds in lowering the generation of Aβ40 and Aβ42, the most abundant forms of beta amyloid, from APP (amyloid precursor protein) was measured in an electrochemiluminescent (ECL) assay of conditioned media from chinese hamster ovary (CHO) cells stably expressing the human amyloid precursor protein (APP) reporter construct, hAPP-REPNL751 (Sughir, R. et al.; J. Biolog. Chem (1992) 267: 25602-25608). Aβ peptides were secreted at high levels into cell culture media by cells carrying the human APP transgene; compounds were tested for their capacity to modulate this production. The Aβ peptide in the conditioned medium was quantitated by a sandwich immunoassay with the MSD ECL detection system. Cell metabolism was measured using a 3-(4,5-dimethylthiazol-2-yl)-5-(3-carboxymethoxypheny)-2-(4-sulfophenyl)-2H-tetrazolium, inner salt (MTS) salt kit (which measures the mitochondrial activity of cells by the bioreduction of Owen's reagent). This assay consists of the following protocol:
(§2) 1. hAPP-REPNL751CHO cells were seeded into 96 well plates and incubated until about 60-70% confluence.
(§3) 2. Medium was removed, cells were washed, and fresh serum-free medium (Ultraculture) was put on cells.
(§4) 3. Compounds were diluted and then added to the cell medium.
(§5) 4. Cells were incubated, with compounds, for indicated times.
(§6) 5. Streptavidin coated Meso Scale Discover (MSD) plates (MSD standard MULTI-ARRAY® 96 plate, cat.# P11SA-1) were washed […] with TTBS (Tris-buffered saline, the TWEEN® 20 reagent).
(§7) 6. 20 μL conditioned medium were removed from the cells and added to the TTBS prewashed MSD plates.
(§8) 7. Standard curve dilutions of synthetic Aβ40 and Aβ42 were prepared and added to the MSD plates.
(§9) 8. A reagent mix was prepared in 1% MSD Blocker A (appropriate concentration of biotinylated 6E10 antibody, detection antibodies to Aβ40, Aβ42, and MSD ruthinylated tag antibody).
(§10) 9. 20 μL reagent mix was distributed to sample plate.
(§11) 10. Plates were incubated with shaking overnight at 4° C.
(§12) 11. Plates were washed 3× with TTBS.
(§13) 12. 150 μL read buffer was added per well (MSD® Read Buffer T, cat#R92TC-2, made 1× with distilled water).
(§14) 13. Plates were read in a MSD® plate reader within 2 hours.
(§15) Assays were accepted or rejected based upon specific performance criteria, including regression coefficient of standard curve, adequate signal to noise ratio, sample signals lying within the range of the standard curve, etc.: the specific parameters were established for each tissue type prior to performing an assay, and were included in the full analytical procedure.
(§16) Plate data from both assays (MTS and MSD® ELISA) were transferred into a Microsoft EXCEL® spreadsheet to determine the toxicity, and inhibition caused by the compounds. Standard curves of Aβ were generated using LSW™ toolbar Hill slope model 42, with 1/y weighting (general sigmoidal curve with Hill slope, a to d; y=(a−d)/(1+(x/c)̂b)+d). Inhibition data were expressed as a percent of the average of the Aβ values in the vehicle treated wells (all values are background subtracted), using LSW™ toolbar Hill Slope model 68 (ligand-receptor binding/sigmoidal, with Hill slope and Bmax to 0; y=Bmax*(1−(x̂n/(K̂n+x̂n))), after raw values were translated/transformed into absolute Aβ values utilizing the standard curve generated as described above (e.g. back calculate absolute Aβ values from the raw values utilizing standard curve). Onboard controls to verify assay performance were checked to assure that amyloid is within linear detection range of the assay, that cells were expressing correctly, and that the MSD itself was performing according to quality control (QC) standards.
(§17) % Inhibition>50% may be considered a positive response or an interesting result in this assay; EC50 determination were determined.
(§18) The beta amyloid inhibitory activity of compounds of formula (I) was determined using the MSD ECL assay. Inhibition of Notch processing was measured using the stable transfection reporter assay See, Table 1 below.

Aβ42 = assay: Aβ-lowering MSD electrochemiluminescent assay of conditioned media from CHO cells expressing human APP (Aβ42); type: cell-based
Procedure: as §1, §2, §3, §4, §5, §6, §7, §8, §9, §10, §11, §12, §13, §14, §15, §16, §17, §18

Notch = assay: Stable transfection Notch reporter assay (HES1-SEAP, P8H6 CHO-K1 cells); type: cell-based; details: CHO-K1
Description: A concern with compounds that lower beta amyloid synthesis by targeting the γ-secretase enzyme is that this enzyme also is involved in the cleavage of other substrates besides APP especially the Notch substrate. […] Thus, a selectivity of APP cleavage over Notch cleavage is desired in order to avoid G.I. side effects. The activity of compounds in cleaving Notch can be measured in a whole cell functional Notch assay. This is an assay to determine the effects of compounds on the S3 (γ-secretase like) processing of Notch. […] SEAP transactivation is then detected by luminescent assay. The assay consists of the following protocol:
• (i) Materials: The P8H6 inducible stable cell line was derived from T-REX™ CHO-K1, stably expressing Tet repressor, Notch (pZX1) and HES1-SEAP (pZX2) reporter constructs. A Wallac 1450 Victor™ Luminescence Counter was used to measure luminescent signal. All other materials and reagents were of highest quality available and were all from commercial sources.
(ii) Construct Description: • pZX1: Mouse Notch1 with deleted extracellular domain cloned at Hind III/Xho I sites of pcDNA5/TO vector: Ampicillin Resistance for bacteria, hygromycin resistance for cells. • pZX2: Mouse HES1 promoter together with reporter gene SEAP cloned at Not I/Apa I sites of pcDNA3.1 with deletion of CMV promoter.
(iii) Procedure: • 1. P8H6 cells were grown in Ham's F12 complete growth media containing 10% FBS (reduced tetracycline), 2 mM of L-glutamine, 1 mg/mL of hygromycin, 1 mg/mL of the GENETICIN® antibiotic, 10 μg/mL of Blasticidin and 1% Penicillin-Streptomycin were supplemented with doxycline with final induction concentration of 0.2 μg/mL. The cells were seeded in 96-well tissue culture plate at 8000/well. • 2. Test compounds in 0.2% DMSO/25 mM HEPES buffer were diluted at final working concentration of 20 μM, 6.7 μM, 2.2 μM, 741 nM, 247 nM, 82 nM, 27 nM, 9 nM and 3 nM. Diluted compounds then were added to P8H6 cells in 96-well tissue culture plates. For vehicle samples, the same volume of 0.2% DMSO/25 mM HEPES buffer was added. • 3. Cells were incubated at 37° C., 5% CO2 for 48 hours. • 4. SEAP levels in the conditioned media were assessed using the Clontech GREATESCAPE™ SEAP Chemiluminescence detection kit according to the manufacturer's instruction. Briefly, 15 μL of conditioned media were mixed with 45 μL of the dilution buffer and incubated at 65° C. for 45 minutes. After cooling, assay buffer was added and the sample was incubated with the CSPD® substrate. • 5. Luminescence was measured in a Wallac 1450 VICTOR™ luminescence counter.
EC50 was the compound concentration that was estimated to provide a 50% reduction of maximum response in Notch induced SEAP levels. An EC50 from a given assay may only be used for averaging if it has met the following criteria: • 1. There is a lower dose in the assay which gives a % Notch Activity>60% (bracketing lower dose). • 2. There is a higher dose in the assay which gives a % Notch Activity<30% (bracketing higher dose), and the maximum inhibition is reached (e.g., a given compound might achieve 80% inhibition (% Notch activity is about 20%) over several doses, and therefore 20% would be considered the maximum inhibition.
Data were analyzed in Microsoft EXCEL® format. EC50 was calculated by LSW using sigmoidal inhibition from B0 to nsb model (model 59). Each assay plate contained a dose response curve for the reference compound 5-chloro-N-[(1S,2R)-2-ethyl-4,4,4-trifluoro-1-(hydroxymethyl)butyl]thiophene-2-sulfonamide. This compound is discussed in International Patent Publication No. WO 2004/092155. The following data is not shown in that publication.
as §18

[1] = MSD electrochemiluminescent assay, hAPP-REPNL751 CHO cells, read-out: Aβ40 EC50 for inhibition of Aβ40
[2] = MSD electrochemiluminescent assay, hAPP-REPNL751 CHO cells, read-out: Aβ42 EC50 for inhibition of Aβ42
[3] = stable transfection Notch reporter assay, 48 hours, read-out: Notch EC50 for inhibition of Notch
[4] = CHO, beta amyloid assay reference compounds, read-out: EC50 Aβ40
[5] = CHO, beta amyloid assay reference compounds, read-out: EC50 Aβ42
[6] = Notch assay reference compounds, read-out: EC50 (Notch assay)

Structure (SMILES)	EC50 (Aβ40; [1]) [nM]	EC50 (Aβ42; [2]) [nM]	EC50 (Notch; [3]) [nM]	EC50 (Aβ40; [4]) [nM]	EC50 (Aβ42; [5]) [nM]	EC50 (Notch; [6]) [nM]	melting point [°C]
O=S(=O)(N[C@H](CO)[C@H](c1ccccc1)C(F)(F)F)c1ccc(Cl)s1 (stereo in doubt) [Example 5, 5-Chloro-N-[(1S*,2S*)-3,3,3-trifluoro-1-hydroxymethyl-2-phenylpropyl]thiophene-2-sulfonamide]	7520	7200	> 20000				
CC[C@H](CC(F)(F)F)[C@@H](CO)NS(=O)(=O)c1ccc(Cl)s1 [5-chloro-N-[(1S,2R)-2-ethyl-4,4,4-trifluoro-1-(hydroxymethyl)butyl]thiophene-2-sulfonamide, reference compound]				6	5	225	
CC(C)[C@H](O)C(=O)N[C@@H](C)C(=O)N[C@@H]1C(=O)N(C)CCc2ccccc21 [(2S)-2-hydroxy-3-methyl-N-((1S)-1-methyl-2-{[(1S)-3-methyl-2-oxo-2,3,4,5-tetrahydro-1H-3-benzazepin-1-yl]amino}-2-oxoethyl)butanamide, reference compound]				109	79	68	
O=S(=O)(NC(CO)C(c1ccccc1)C(F)(F)F)c1ccc(Cl)s1 (stereo not shown) [Example 1, 5-Chloro-N-[3,3,3-trifluoro-1-(hydroxymethyl)-2-phenylpropyl]thiophene-2-sulfonamide]	710	760	> 20000				
O=S(=O)(N[C@H](CO)[C@@H](c1ccccc1)C(F)(F)F)c1ccc(Cl)s1 [Example 4, 5-Chloro-N-[(1S,2R)-3,3,3-trifluoro-1-(hydroxymethyl)-2-phenylpropyl]thiophene-2-sulfonamide]	238	197	3750				
O=S(=O)(N[C@H](CO)[C@@H](c1ccccc1)C(F)(F)F)c1ccc(Cl)cc1 [Example 6, 4-Chloro-N-[(1S,2R)-3,3,3-trifluoro-1-(hydroxymethyl)-2-phenylpropyl]benzenesulfonamide]	1330	1900	> 20000				129 to 131
